Type in all cases: toxicity, cell-based
Series [1] concerns Fibroblast. As to the kind of experiment: Incucyte cell viability with human fibroblast. The following applies: 10 µM, compound concentration 10 uM.
The subject of series [2] is U2OS. The series is described as follows: Incucyte cell viability with U2OS. Conditions: human, 10 µM, compound concentration 10 uM.
Series [3] relates to HEK-293T. The series is described as follows: Incucyte cell viability with HEK293T. Conditions: human, 10 µM, compound concentration 10 uM.
[4] abbreviates: 0 h, replicate number 1, timepoint 0 hours.
The mark [5] stands for this setting: 0 h, replicate number 2, timepoint 0 hours.
Where [6] appears, read: 12 h, replicate number 1, timepoint 12 hours.
Where [7] appears, read: 12 h, replicate number 2, timepoint 12 hours.
Setting [8] is: 24 h, replicate number 1, timepoint 24 hours.
The mark [9] stands for this setting: 6 h, replicate number 1, timepoint 6 hours.
The mark [10] stands for this setting: 18 h, replicate number 2, timepoint 18 hours.
The mark [11] stands for this setting: 6 h, replicate number 2, timepoint 6 hours.
Where [12] appears, read: 18 h, replicate number 1, timepoint 18 hours.
[13] abbreviates: 24 h, replicate number 2, timepoint 24 hours.
Note: unitless GR value; below 1 slowed growth and below 0 cell loss.

On to `Nc1nc(Nc2ccccc2)nc2c1ncn2[C@@H]1O[C@H](CO)[C@@H](O)[C@H]1O`, for which the “Growth Rate” value worked out at 0.77 in series [1] (setting [4]); 0.2 in series [1] (setting [5]); 0.83 in series [1] (setting [6]); 0.96 in series [1] (setting [7]); 0.93 in series [1] (setting [8]); 0.4 in series [2] (setting [4]). Moreover, the “Growth Rate” value in series [2] (setting [9]) was 0.95; in series [2] (setting [6]), 0.84; in series [2] (setting [10]), 0.91; in series [2] (setting [8]), 0.93; in series [3] (setting [4]), 0.49; in series [3] (setting [5]), -0.14. Further, the “Growth Rate” value was found to be 0.52 in series [3] (setting [9]); 0.76 in series [3] (setting [11]); 0.7 in series [3] (setting [6]); 0.63 in series [3] (setting [7]); 0.76 in series [3] (setting [12]); 0.95 in series [3] (setting [10]). Besides, the “Growth Rate” value in series [3] (setting [8]) is listed as 0.85; in series [3] (setting [13]), 0.9.
As for `COc1ccncc1C(=O)NC(=O)Nc1ccc(-c2ccccc2)c(C(F)(F)F)c1`, the “Growth Rate” value was 0.48 in series [1] (setting [4]); 0.72 in series [1] (setting [5]); -0.12 in series [1] (setting [9]); 0.15 in series [1] (setting [11]); 0.58 in series [1] (setting [6]); 0.7 in series [1] (setting [12]). Further, the “Growth Rate” value in series [1] (setting [8]) was determined as 0.92; in series [2] (setting [11]), 0.74; in series [2] (setting [10]), 0.94; in series [2] (setting [13]), 1; in series [3] (setting [9]) it was 0.25; in series [3] (setting [11]), 0.96. For the same compound, the “Growth Rate” value in series [3] (setting [6]) came out at 0.48; in series [3] (setting [7]), 0.74; in series [3] (setting [12]), 0.58; in series [3] (setting [10]), 0.86; in series [3] (setting [8]) it was 0.69.
Take `CNC(=O)[C@H]1O[C@@H](n2cnc3c(NCc4cccc(I)c4)ncnc32)[C@H](O)[C@@H]1O` [IB-MECA]: the “Growth Rate” value in series [1] (setting [4]) is on record as 0.22; in series [1] (setting [9]), 0.12; in series [1] (setting [11]), -0.56; in series [1] (setting [6]), 0.45; in series [1] (setting [7]), 0.1; in series [1] (setting [12]), 0.7. Besides, the “Growth Rate” value was 0.24 in series [1] (setting [10]); 0.54 in series [1] (setting [8]); 0.42 in series [1] (setting [13]); -0.65 in series [2] (setting [4]); -0.98 in series [2] (setting [5]); 0.98 in series [2] (setting [9]). Moreover, the “Growth Rate” value is 0.82 in series [2] (setting [11]); 0.89 in series [2] (setting [6]); 0.85 in series [2] (setting [7]); 0.79 in series [2] (setting [12]); 0.76 in series [2] (setting [10]); 0.81 in series [2] (setting [13]). For the same compound, the “Growth Rate” value in series [3] (setting [4]) is reported as 0.11; in series [3] (setting [5]) it was 0.3; in series [3] (setting [7]) it was 1; in series [3] (setting [12]), 0.64; in series [3] (setting [10]), 0.98; in series [3] (setting [8]), 0.64. In addition, in series [3] (setting [13]), the “Growth Rate” value was 0.83.
With `COc1ccc2c(c1OCc1ccccc1)C[C@@H](C(=O)O)N(C(=O)C(c1ccccc1)c1ccccc1)C2` [OLODANRIGAN], the “Growth Rate” value in series [1] (setting [4]) is on record as 0.93; in series [1] (setting [5]), 0.27; in series [1] (setting [9]) it was 0.24; in series [1] (setting [8]), 0.83; in series [2] (setting [5]) it was -1; in series [2] (setting [7]), 0.89. The “Growth Rate” value in series [2] (setting [10]) is reported as 0.98; in series [3] (setting [9]), 0.62; in series [3] (setting [11]), 0.64; in series [3] (setting [6]), 0.74; in series [3] (setting [12]), 0.8; in series [3] (setting [8]), 0.86.
As for `O=C1NC(=O)C(c2ccccc2[N+](=O)[O-])=C1Nc1ccc(O)c(Cl)c1`, the “Growth Rate” value in series [1] (setting [4]) was -0.16; in series [1] (setting [5]), 0.11; in series [2] (setting [4]), 0.02; in series [2] (setting [5]), -1; in series [2] (setting [6]) it was 0.95; in series [2] (setting [8]), 0.84. In addition, the entries for the “Growth Rate” value in series [3] (setting [4]) and in series [3] (setting [5]) were 0.17 and 0.13, respectively.
`CCn1c(-c2nc3cc(C(=O)N4CCCC(N)C4)ccc3n2C)cc2ccccc21.Cl` (centres undefined): the “Growth Rate” value in series [1] (setting [5]) is 0.99; in series [1] (setting [9]), -0.75; in series [1] (setting [11]), 0.43; in series [1] (setting [6]), -0.23; in series [1] (setting [7]), 0.52; in series [1] (setting [12]), -0.08. Besides, the “Growth Rate” value is given as 0.56 in series [1] (setting [10]); 0.15 in series [1] (setting [8]); 0.6 in series [1] (setting [13]); -0.61 in series [2] (setting [4]); 0.71 in series [2] (setting [9]); 0.95 in series [2] (setting [6]). For the same compound, the “Growth Rate” value is on record as -1 in series [3] (setting [5]); 0.72 in series [3] (setting [9]); 0.44 in series [3] (setting [6]); 0.73 in series [3] (setting [12]); 0.83 in series [3] (setting [8]).
As for `Cc1ccccc1C(=O)Nc1ccc(C(=O)N2CCCC(N(C)C)c3ccccc32)cc1.Cl` (centres undefined), the “Growth Rate” value is on record as -0.99 in series [1] (setting [9]); -0.65 in series [1] (setting [11]); -0.85 in series [1] (setting [6]); -0.38 in series [1] (setting [7]); -0.63 in series [1] (setting [12]); -0.1 in series [1] (setting [10]). Further, the “Growth Rate” value in series [1] (setting [8]) is recorded as -0.44; in series [1] (setting [13]), 0.07; in series [2] (setting [4]) it was 0.36; in series [2] (setting [9]), 0.05; in series [2] (setting [11]), -0.11; in series [2] (setting [6]), -0.03. In addition, the “Growth Rate” value was -0.22 in series [2] (setting [7]); -0.06 in series [2] (setting [12]); -0.09 in series [2] (setting [10]); -0.11 in series [2] (setting [8]); -0.08 in series [2] (setting [13]); -0.55 in series [3] (setting [9]). Moreover, the “Growth Rate” value is recorded as -0.44 in series [3] (setting [11]); -0.32 in series [3] (setting [6]); -0.03 in series [3] (setting [7]); -0.11 in series [3] (setting [12]); 0.08 in series [3] (setting [10]); 0.1 in series [3] (setting [8]). The “Growth Rate” value in series [3] (setting [13]) is recorded as 0.22.
In the case of `COC(c1ccccc1)(c1ccccc1)[C@H](Oc1nc(C)cc(C)n1)C(=O)O` [AMBRISENTAN], the “Growth Rate” value in series [1] (setting [5]) is reported as 0.74; in series [1] (setting [9]) it was 0.41; in series [1] (setting [11]) it was 0.53; in series [1] (setting [6]), 0.97; in series [1] (setting [7]), 0.6; in series [2] (setting [4]) it was -0.03. The “Growth Rate” value is recorded as -1 in series [2] (setting [5]); 0.96 in series [2] (setting [10]); 0.79 in series [3] (setting [5]); 0.96 in series [3] (setting [6]); 0.99 in series [3] (setting [12]); 0.97 in series [3] (setting [8]).
As for `Cc1cc(OCCCS(C)(=O)=O)cc(C)c1-c1cccc(COc2ccc3c(c2)OC[C@H]3CC(=O)O)c1`, the “Growth Rate” value in series [1] (setting [5]) was 0.69; in series [1] (setting [9]), -0.03; in series [1] (setting [11]), 0.19; in series [1] (setting [6]), 1; in series [1] (setting [7]) it was 0.55; in series [1] (setting [10]), 0.31. Moreover, the “Growth Rate” value in series [1] (setting [8]) is reported as 0.78; in series [1] (setting [13]), 0.67; in series [2] (setting [4]), 0.26; in series [2] (setting [11]), 0.73; in series [2] (setting [7]), 0.89; in series [2] (setting [10]), 0.9. The “Growth Rate” value in series [3] (setting [12]) is recorded as 0.7; in series [3] (setting [8]), 0.69.
For `COc1ccc(C(=O)N2CCN(C(=O)/C=C/c3ccc(Br)cc3)CC2)cc1`, the “Growth Rate” value in series [1] (setting [5]) is reported as 0.76; in series [1] (setting [9]), -0.51; in series [1] (setting [6]), 0.15; in series [1] (setting [7]), 0.95; in series [1] (setting [12]) it was 0.44; in series [1] (setting [10]) it was 0.79. In addition, the “Growth Rate” value in series [1] (setting [8]) is recorded as 0.08; in series [2] (setting [9]), -0.38; in series [2] (setting [11]), 0.66; in series [2] (setting [6]), 0.8; in series [2] (setting [7]) it was 0.72; in series [2] (setting [12]), 0.64. Also, the “Growth Rate” value in series [2] (setting [10]) is given as 0.63; in series [2] (setting [8]), 0.88; in series [2] (setting [13]), 0.73; in series [3] (setting [9]), 0.09.
Regarding `COCCCN1CCC(NC(=O)c2cc(Cl)c(N)c3c2OCC3)CC1` [PRUCALOPRIDE], the “Growth Rate” value in series [1] (setting [4]) is 0.48; in series [1] (setting [5]), 0.89; in series [1] (setting [9]), 0.71; in series [1] (setting [11]) it was 0.75; in series [1] (setting [6]), 0.6; in series [1] (setting [12]) it was 0.86. Moreover, the “Growth Rate” value in series [2] (setting [4]) was 0.24; in series [2] (setting [11]), 0.76; in series [2] (setting [7]), 0.99; in series [2] (setting [12]), 0; in series [2] (setting [10]), 0.98; in series [2] (setting [8]), 0.1. Moreover, the “Growth Rate” value in series [3] (setting [7]) is 0.99.

Source of the values: ChEMBL document CHEMBL5058564, “EUbOPEN Chemogenomics Library 2 (Incucyte)” (2022).
